# From paper PMC12655351, “Synthesis and Anticancer Activity Evaluation of New 5-((5-Nitrofuran-2-yl)allylidene)-2-thioxo-4-thiazolidinones” (Pharmaceuticals, 2025)
# Key:
# [1] = tested on: MDA-MB-435; conditions: MDA-MB-435, 48 h
# [2] = tested on: MOLT-4; assay: cells; conditions: Homo sapiens, MOLT-4, 48 h; for CC50: read-out: LC50, MOLT-4, 48 h
# [3] = tested on: MDA-MB-231; assay: [3H]-thymidine incorporation assay; type: cell-based; conditions: Homo sapiens; MDA-MB-231, 24 h of treatment
# Method: (§1) Another method of assessing the cytotoxic effects of tested compounds, [^3H]-thymidine incorporation assay, was applied. This method provided the capability to analyze the antiproliferative activity of novel structures on MCF-7 and MDA-MB-231 through their ability to incorporate thymidine into the cells. The acquired results further confirmed the potent activity of the 14b compound as the most prominent structure among the novel compounds (Table 2). The test was carried out in triplicate at concentrations of 5, 15, and 30 μM for the MDA-MB-231 cell line and 1, 5, and 10 μM for the MCF-7 cell line.
# (§2) Following the selection of cell lines for further study, the effects of all compounds on cell proliferation were evaluated on MCF-7 and MDA-MB-231 cell lines. Cells were seeded in 24-well plates and cultured as described above. Cells were treated with the compounds at concentrations 1, 5, and 10 μM, and 5, 15, and 30 μM for MCF-7 and MDA-MB-231 cell lines, respectively, for 24 h. Subsequently, 0.5 μCi [^3H]-thymidine was added for 4 h at 37 °C. Then, plates with cells were placed on the ice, the liquid was aspirated, and cells were washed twice with 1mL of 0.05 M Tris-HCl buffer comprising 0.11 M NaCl and precipitated by adding 1 mL per well of 5% trichloroacetic. After precipitation, the cells were dissolved with 1 mL of 0.1 M NaOH with 1% SDS (Sigma-Aldrich, St. Louis, MO, USA) at room temperature (RT). The cell lysates were transferred into scintillation vials containing 2 mL of scintillation fluid (Ultima Gold™ XR, PerkinElmer, MA, USA), and cell-associated radioactivity was measured using a Scintillation Counter 1900 TR, TRI-CARB (Packard, Perkin Elmer, Inc., San Jose, CA, USA). The [^3H]-thymidine uptake was expressed as a percentage of the control value.
# [4] = tested on: MCF-7; assay: [3H]-thymidine incorporation assay; type: cell-based; conditions: Homo sapiens, MCF7; MCF-7, 24 h of treatment
# Method: as §1, §2
# [5] = tested on: HCC-2998; conditions: for growth GP: HCC-2998, 10 μM, 48 h; for TGI: HCC-2998, 48 h
# [6] = tested on: UO-31; conditions: UO-31, 48 h
# [7] = tested on: MDA-MB-435; assay: cells; conditions: Homo sapiens, MDA-MB-435, 48 h; for CC50: read-out: LC50, MDA-MB-435, 48 h
# [8] = tested on: TK-10; assay: cells; conditions: Homo sapiens, TK-10, 48 h; for CC50: read-out: LC50, TK-10, 48 h
# [9] = tested on: Breast cancer; assay: cells; conditions: Homo sapiens; for GI50: read-out: MG_MID GI50; for CC50: read-out: MG_MID LC50
# [10] = tested on: Non-small cell lung cancer; conditions: Non-small cell lung cancer subpanel
# [11] = tested on: NCI-H266; assay: NCI-60 SRB screen; conditions: for GI50 / CC50: Homo sapiens, 48 h; for GI50 / TGI: NCI-H266, 48 h; for CC50: read-out: LC50, NCI-H266, 48 h
# [12] = tested on: Melanoma; assay: cells; conditions: Homo sapiens; for GI50: read-out: MG_MID GI50; for CC50: read-out: MG_MID LC50
# [13] = tested on: OVCAR-4; conditions: OVCAR-4, 48 h
# [14] = tested on: K-562; conditions: K-562, 48 h
# [15] = tested on: PC-3; assay: cells; conditions: Homo sapiens, PC-3, 48 h
# [16] = tested on: Renal Cancer; conditions: Renal Cancer subpanel
# [17] = tested on: MALME-3M; assay: NCI-60 SRB screen; conditions: 48 h; for GI50 / CC50: Homo sapiens, Malme-3M; for CC50: read-out: LC50, MALME-3M, 48 h; for TGI: MALME-3M
# [18] = tested on: T-47D; assay: cells; conditions: Homo sapiens, T47D, 48 h; for GI50: T-47D
# [19] = tested on: OVCAR-8; conditions: OVCAR-8, 48 h
# [20] = tested on: SF-268; conditions: SF-268, 48 h
# [21] = tested on: RPMI-8226; assay: cells; conditions: Homo sapiens, RPMI-8226, 48 h; for CC50: read-out: LC50
# [22] = tested on: SK-MEL-28; conditions: for TGI: SK-MEL-28, 48 h
# [23] = tested on: CCRF-CEM; assay: cells; conditions: Homo sapiens, 48 h
# [24] = tested on: OVCAR-5; assay: NCI-60 SRB screen; conditions: OVCAR-5, 48 h; for GI50: Homo sapiens
# [25] = tested on: CAKI-1; conditions: for TGI: CAKI-1, 48 h
# [26] = tested on: NCI/ADR-RES; conditions: 48 h
# [27] = tested on: SK-MEL-5; assay: cells; conditions: Homo sapiens, SK-MEL-5, 48 h; for CC50: read-out: LC50, SK-MEL-5, 48 h
# [28] = tested on: Leukemia; assay: cells; conditions: Homo sapiens; for GI50: read-out: MG_MID GI50; for CC50: read-out: MG_MID LC50
# [29] = tested on: UO-31; assay: cells; conditions: Homo sapiens, UO-31, 48 h; for CC50: read-out: LC50, UO-31, 48 h
# [30] = tested on: UACC-257; conditions: UACC-257, 48 h
smiles,measurement,setting,value
"O=C(O)CCN1C(=O)/C(=C/C=C/c2ccc([N+](=O)[O-])o2)SC1=S [12b, 3-((Z)-5-((E)-3-(5-Nitrofuran-2-yl)allylidene)-4-oxo-2-thioxothiazolidin-3-yl)propanoic acid]",TGI,[1],2480 nM
same,GI50,[2],580 nM
same,CC50,[2],> 100000 nM
same,IC50,[3],1820 nM
same,IC50,[4],6660 nM
same,growth GP,[5],-95.81%
same,TGI,[5],9260 nM
same,TGI,[6],2250 nM
same,GI50,[7],1160 nM
same,CC50,[7],5320 nM
same,GI50,[8],2020 nM
same,CC50,[8],7190 nM
same,GI50,[9],1090 nM
same,CC50,[9],37400 nM
same,MG_MID TGI,[10],7750 nM
same,GI50,[11],2830 nM
same,CC50,[11],79700 nM
same,TGI,[11],12500 nM
same,GI50,[12],1140 nM
same,CC50,[12],5560 nM
same,TGI,[13],3790 nM
same,TGI,[14],2730 nM
same,GI50,[15],2480 nM
same,MG_MID TGI,[16],6010 nM
same,GI50,[17],500 nM
same,CC50,[17],4250 nM
same,TGI,[17],1660 nM
same,GI50,[18],940 nM
same,CC50,[18]; read-out: LC50,> 100000 nM
same,TGI,[19],7110 nM
same,TGI,[20],3180 nM
same,GI50,[21],1230 nM
same,CC50,[21],> 100000 nM
same,TGI,[22],3050 nM
same,GI50,[23],250 nM
same,GI50,[24],1990 nM
same,TGI,[24],3700 nM
same,TGI,[25],2740 nM
same,TGI,[26],4280 nM
same,GI50,[27],1030 nM
same,CC50,[27],4870 nM
same,GI50,[28],660 nM
same,CC50,[28],> 100000 nM
same,GI50,[29],1050 nM
same,CC50,[29],4840 nM
same,TGI,[30],4080 nM
"CC(C)C(C(=O)O)N1C(=O)/C(=C/C=C/c2ccc([N+](=O)[O-])o2)SC1=S (stereo not drawn) [5b, 3-Methyl-2-((Z)-5-((E)-3-(5-nitrofuran-2-yl)allylidene)-4-oxo-2-thioxothiazolidin-3-yl)butanoic acid]",TGI,[1],2170 nM
same,GI50,[2],2340 nM
same,CC50,[2],> 100000 nM
same,IC50,[3],6010 nM
same,IC50,[4],1930 nM
same,growth GP,[5],-95.90%
same,TGI,[5],3220 nM
same,TGI,[6],3110 nM
same,GI50,[7],850 nM
same,CC50,[7],5010 nM
same,GI50,[8],2240 nM
same,CC50,[8],7230 nM
same,GI50,[9],1220 nM
same,CC50,[9],24600 nM
same,MG_MID TGI,[10],4250 nM
same,GI50,[11],2400 nM
same,CC50,[11],88800 nM
same,TGI,[11],7650 nM
same,GI50,[12],1250 nM
same,CC50,[12],5590 nM
same,TGI,[13],6720 nM
same,TGI,[14],2860 nM
same,GI50,[15],1800 nM
same,MG_MID TGI,[16],3270 nM
same,GI50,[17],1320 nM
same,CC50,[17],5640 nM
same,TGI,[17],2730 nM
same,GI50,[18],1120 nM
same,TGI,[19],4780 nM
same,TGI,[20],3570 nM
same,GI50,[21],350 nM
same,CC50,[21],> 100000 nM
same,growth GP,"[22]; SK-MEL-28, 10 μM, 48 h",-95.39%
same,TGI,[22],2830 nM
same,GI50,[23],360 nM
same,GI50,[24],2130 nM
same,TGI,[24],3830 nM
same,growth GP,"[25]; CAKI-1, 10 μM, 48 h",-97.14%
same,TGI,[25],2460 nM
same,TGI,[26],4130 nM
same,GI50,[27],1030 nM
same,CC50,[27],4740 nM
same,GI50,[28],840 nM
same,CC50,[28],> 100000 nM
same,GI50,[29],1330 nM
same,CC50,[29],7270 nM
same,TGI,[30],3270 nM
